Source: US20050250784A1 (Miikana Therapeutics Corporation, priority 2004, published 2005)

System: HDAC (HeLa cell nuclear extract, a mosaic of HDAC enzymes)
Assay: In vitro fluorescent histone deacetylase assay (Biomol HDAC fluorescent activity kit)
Assay type: biochemical
Settings: compound concentration 100 μM; HeLa cell nuclear extract as HDAC source; substrate 50 μM, 10 min, room temperature
Method: Histone deacetylase (HDAC) activity assays were performed using the HDAC fluorescent activity assay/drug discovery kit (Biomol Research Laboratories, Plymouth Meeting, Pa.) essentially according to the manufacturer's instructions. The included HeLa cell nuclear extract, which contains a mosaic of HDAC enzymes and other nuclear factors, was used as the source of HDAC activity. The final substrate concentration in the assay mixture was 50 μM. The reaction was allowed to proceed for 10 min at room temperature before stopping the reaction. Test compounds were prepared as 20 mM stock solutions in DMSO (Molecular Biology grade, Sigma-Aldrich Co., St. Louis, Mo.) and stored at −70° C. Serial dilutions of test compounds were prepared in assay buffer immediately prior to testing. DMSO was determined in a separate trial to have no significant effect on the activity of this assay at concentrations up to 5%; the final DMSO concentration in the wells was no more than 2% and therefore DMSO effects were safely neglected. Assays were performed in white polystyrene 96-well half-area assay plates (Corning, Corning, N.Y.) and measured on a Wallace 1420 fluorescent plate reader (Wallac Oy, Turku, Finland) with an excitation wavelength of 355 nm, an emission wavelength of 460 nm, and a 1 sec signal averaging time.

SMILES: O=C(NO)c1cnc(N2CCN(S(=O)(=O)c3cccc(-c4ccccc4)c3)CC2)s1 [Example 251, 2-[4-(3-biphenylsulfonyl)piperazin-1-yl]-thiazole-5-carboxylic acid hydroxyamide]
- % inhibition HDAC @ 100 μM: 100%

SMILES: CN(C)Cc1ccc(S(=O)(=O)N2CCN(c3ncc(C(=O)NO)s3)CC2)cc1 [Example 295]
- % inhibition HDAC @ 100 μM: 98%

SMILES: O=C(NO)c1cnc(N2CCN(S(=O)(=O)c3ccc(-c4ccsc4CN4CCCC4)cc3)CC2)s1 [Example 282, 2-(4-[4-{(2-(pyrrolidin-1-ylmethyl)-thien-3-yl)phenylsulfonyl}]piperazin-1-yl)-1,3-thiazole-5-carboxylic acid hydroxyamide]
- % inhibition HDAC @ 100 μM: 99%

SMILES: CN(C)Cc1cccc(S(=O)(=O)N2CCN(c3ncc(C(=O)NO)s3)CC2)c1 [Example 297]
- % inhibition HDAC @ 100 μM: 99%

SMILES: O=C(NO)c1cnc(N2CCN(S(=O)(=O)c3ccc(-c4cccc(CN5CCCCC5)c4)cc3)CC2)s1 [Example 273]
- % inhibition HDAC @ 100 μM: 100%

SMILES: CCCCS(=O)(=O)N1CCN(c2ncc(C(=O)NO)s2)CC1 [Example 253, 2-[4-(n-butylsulfonyl)-piperazin-1-yl]-thiazole-5-carboxylic acid hydroxyamide]
- % inhibition HDAC @ 100 μM: 94%

SMILES: CC(C)N(C)Cc1cccc(-c2ccc(S(=O)(=O)N3CCN(c4ncc(C(=O)NO)s4)CC3)cc2)c1 [Example 287, 2-{4-[(3′-[isopropyl(methyl)amino]methyl]-1,1′-biphenylsulfonyl]-piperazin-1-yl}-1,3-thiazole-5-carboxylic acid hydroxyamide]
- % inhibition HDAC @ 100 μM: 99%

SMILES: CCN(C)Cc1cccc(-c2ccc(S(=O)(=O)N3CCN(c4ncc(C(=O)NO)s4)CC3)cc2)c1 [Example 286, 2-{4-[(3′-[ethyl(methyl)amino]methyl]-1,1′-biphenylsulfonyl]piperazin-1-yl}-1,3-thiazole-5-carboxylic acid hydroxyamide]
- % inhibition HDAC @ 100 μM: 99%

SMILES: O=C(NO)c1cnc(N2CCN(S(=O)(=O)c3ccc(-c4cncnc4)cc3)CC2)s1 [Example 291, 2-[4-{(4-pyrimidine)benzenesulfonyl}-piperazin-1-yl]-thiazole-5-carboxylic acid hydroxyamide]
- % inhibition HDAC @ 100 μM: 99%

SMILES: O=C(NO)c1cnc(N2CCN(S(=O)(=O)c3cccc(CN4CCCC4)c3)CC2)s1 [Example 298]
- % inhibition HDAC @ 100 μM: 98%

SMILES: CC(=O)Nc1ccc(-c2ccc(S(=O)(=O)N3CCN(c4ncc(C(=O)NO)s4)CC3)cc2)cc1 [Example 292]
- % inhibition HDAC @ 100 μM: 100%

SMILES: CN1CCN(Cc2cccc(-c3ccc(S(=O)(=O)N4CCN(c5ncc(C(=O)NO)s5)CC4)cc3)c2)CC1 [Example 284]
- % inhibition HDAC @ 100 μM: 100%

SMILES: O=C(NO)c1cnc(N2CCN(S(=O)(=O)c3ccc(-c4ccc5c(c4)OCO5)cc3)CC2)s1 [Example 260, 2-(4-{[4-(1,3-benzodioxol-5-yl)phenyl]sulfonyl}piperazin-1-yl)-1,3-thiazole-5-carboxylic acid hydroxyamide]
- % inhibition HDAC @ 100 μM: 99%

SMILES: O=C(NO)c1cnc(N2CCN(S(=O)(=O)c3ccc(CN4CCOCC4)cc3)CC2)s1 [Example 306]
- % inhibition HDAC @ 100 μM: 99%

SMILES: O=C(NO)c1cnc(N2CCN(S(=O)(=O)c3ccc(-c4cccc(F)c4)cc3)CC2)s1 [Example 261]
- % inhibition HDAC @ 100 μM: 95%

SMILES: O=C(NO)c1cnc(N2CCN(S(=O)(=O)c3ccc(Br)s3)CC2)s1 [Example 255, 2-{4-[(5-bromothien-2-yl)sulfonyl]piperazin-1-yl}-N-hydroxy-1,3-thiazole-5-carboxamide]
- % inhibition HDAC @ 100 μM: 29%

SMILES: O=C(NO)c1cnc(N2CCN(S(=O)(=O)c3ccc(Oc4ccccc4)nc3)CC2)s1 [Example 247, 2-[4-(2-phenoxypyridine-5-sulfonyl)-piperazin-1-yl]-thiazole-5-carboxylic acid hydroxyamide]
- % inhibition HDAC @ 100 μM: 96%
